The results in this text go back to US7671050B2, “Triazolophthalazines” (NYCOMED GmbH, priority 2005, dated 2010).

The subject of series [1] is HUVEC monolayers. The experiment in a line: Inhibition of thrombin-stimulated macromolecule (HRP) permeability of HUVEC monolayers. Format: cell-based, human. As to conditions: Homo sapiens, 1 h; HUVEC on Transwells, 1 μM RP73401, 10 μM Motapizone, 1 mM SNP or 100 nM ANP, 1 U/ml thrombin, HRP passage after 60 min; read-out: Inhibition of SNP- or ANP-induced permeability, -log IC50 (converted). Here is the method:
The procedure to measure macromolecule permeability of endothelial cell monolayers followed the method described by Langeler & van Hinsbergh (1988) with modifications. Human umbilical vein endothelial cells were isolated from umbilical cords according to standard procedures (Jaffe et al. 1973) and cultured in endothelial cell basal medium (EBM) supplemented with 2% FCS, 0.5 ng/ml VEGF, 10 ng/ml bFGF, 5 ng/ml EGF, 20 ng/ml Long R3 IGF-1, 0.2 μg/ml hydrocortisone, 1 μg/ml ascorbic acid, 22.5 μg/ml heparin, 50 μg/ml gentamicin, 50 ng/ml amphotericin B (EGM2 purchased from Promocell GmbH, Heidelberg, Germany). At confluency, cells were trypsinized and replated at 73000 cells per well on 3 μm polycarbonate filter Transwell inserts (Costar GmbH, Bodenheim, Germany) precoated with 10 μg cm^2−1 Fibronectin (Sigma, Taufkirchen, Germany). HUVECs were cultured in EGM2 (100 μl in the upper wells and 600 μl in the lower wells) over four days prior the experiments and medium was changed every other day. At the day of the experiment culture medium was replaced by M199 with 1% human serum albumin. Endothelial cells were preincubated with cyclic nucleotide modifiers (the selective PDE3 inhibitor motapizone, the selective PDE4 inhibitor RP73401, the cGMP generators ANP or SNP and PDE2 inhibitors) for 15 min. HUVECs were then stimulated with Thrombin (1 U ml^−1) (Sigma, Taufkichen, Germany) and horsh radish peroxidase (5 μg/ml) (Sigma, Taufkirchen, Germany) as the macromolecule marker protein was added to the upper wells. Following 1 h incubation time Transwells were removed and the activity of horsh radish peroxidase that penetrated the endothelial cell monolayer was measured in the lower wells with the 3,3′,5,5′-tetramethylbenzidine liquid substrate system from Sigma (Taufkirchen, Germany).
In parallel, compounds according to the invention can inhibit Thrombin-induced permeability of HUVEC monolayers for horsh radish peroxidase (HRP) as a macromolecule marker. […] The concentration-dependent inhibition of HRP permeability at different concentrations was assessed from the percent inhibition in the presence and absence of the PDE2 inhibitors and in the presence of 1 μM RP73401, 10 μM Motapizone and 100 nM ANP.
HUVEC cells on 3 μm polycarbonate filters (Transwells) were preincubated with 1 μM RP73401 (to block PDE4) and 10 μM Motapizone (to block PDE3), 1 mM SNP or 100 nM ANP and test sample over 15 min and then stimulated with 1 U/ml thrombin. HRP passage into the lower wells was assessed after 60 min.

By melting point is commonly meant the temperature of the solid-liquid transition. A word on the IC50: it is the concentration needed to halve the response being measured.

With `COc1ccc(-c2nnc3c4ccccc4c(Nc4ccc(Oc5ccccc5)cc4)nn23)cc1` [Example 8, [3-(4-Methoxyphenyl)-[1,2,4]triazolo[3,4-a]phthalazin-6-yl]-(4-phenoxyphenyl)-amine], the melting point was 275.5 °C. Also, the IC50 in series [1] was 7.94 to 316 nM.

Turning to `COc1ccc(-c2nnc3c4ccccc4c(Nc4ccc(OC(F)(F)F)cc4)nn23)cc1` [Example 14, [3-(4-Methoxyphenyl)-[1,2,4]triazolo[3,4-a]phthalazin-6-yl]-(4-trifluoromethoxyphenyl)-amine], the melting point is 300 °C. Moreover, the half-inhibitory concentration (IC50) in series [1] was 7.94 to 316 nM.

Regarding `CCOc1ccc(Nc2nn3c(-c4ccc(OC)cc4)nnc3c3ccccc23)cc1OCC` [Example 29, (3,4-Diethoxyphenyl)-[3-(4-methoxyphenyl)-[1,2,4]triazolo[3,4-a]phthalazin-6-yl]-amine], the melting point is 242.5 °C. The IC50 in series [1] is 7.94 to 316 nM.

As to `COc1ccc(-c2nnc3c4ccccc4c(Nc4ccc(OCc5ccccc5)cc4)nn23)cc1` [Example 10, (4-Benzyloxyphenyl)-[3-(4-methoxyphenyl)-[1,2,4]triazolo[3,4-a]phthalazin-6-yl]-amine], the melting point was 297 °C. Besides, the IC50 in series [1] was 7.94 to 316 nM.

Regarding `COc1ccc(-c2nnc3c4ccccc4c(Nc4ccc(OC(F)F)cc4)nn23)cc1` [Example 30, [4-(1,1-Difluoromethoxy)-phenyl]-[3-(4-methoxyphenyl)-[1,2,4]triazolo[3,4-a]phthalazin-6-yl]-amine], the melting point came out at 294 °C. Further, in series [1], the IC50 is 7.94 to 316 nM.

For `COc1ccc(-c2nnc3c4ccccc4c(Nc4cc(OC)cc(OC)c4)nn23)cc1` [Example 27, (3,5-Dimethoxyphenyl)-[3-(4-methoxyphenyl)-[1,2,4]triazolo[3,4-a]phthalazin-6-yl]-amine], the melting point was found to be 218 °C. In addition, the IC50 in series [1] was 7.94 to 316 nM.

Compound `COc1ccc(-c2nnc3c4ccccc4c(Nc4ccc(N5CCN(C)CC5)cc4)nn23)cc1` [Example 18, [3-(4-Methoxyphenyl)-[1,2,4]triazolo[3,4-a]phthalazin-6-yl]-[4-(4-methylpiperazin-1-yl)-phenyl]-amine] came in with a melting point of 266 °C. In series [1], the concentration for half-maximal inhibition (IC50) is 7.94 to 316 nM.

For the compound `c1ccc(-c2nnc3c4ccccc4c(Nc4ccc(N5CCOCC5)cc4)nn23)cc1` [Example 25, (4-Morpholin-4-ylphenyl)-(3-phenyl-[1,2,4]triazolo[3,4-a]phthalazin-6-yl)-amine], the melting point worked out at 306 °C. In series [1], the IC50 is 7.94 to 316 nM.

Compound `CCOc1ccc(Nc2nn3c(-c4ccc(OC)cc4)nnc3c3ccccc23)cc1` [Example 12, (4-Ethoxyphenyl)-[3-(4-methoxyphenyl)-[1,2,4]triazolo[3,4-a]phthalazin-6-yl]-amine] gave a melting point of 297.5 °C. The IC50 in series [1] was 7.94 to 316 nM.

`COc1ccc(-c2nnc3c4ccccc4c(Nc4ccc(N5CCOCC5)cc4)nn23)cc1` [Example 13, [3-(4-Methoxyphenyl)-[1,2,4]triazolo[3,4-a]phthalazin-6-yl]-(4-morpholin-4-yl-phenyl)-amine] gave a melting point of 314 °C. In addition, the IC50 in series [1] was 7.94 to 316 nM.

On to `c1ccc(Oc2ccc(-c3nnc4c5ccccc5c(Nc5ccc(N6CCOCC6)cc5)nn34)cc2)cc1` [Example 17, (4-Morpholin-4-yl-phenyl)-[3-(4-phenoxyphenyl)-[1,2,4]triazolo[3,4-a]phthalazin-6-yl]-amine], for which the melting point is 306 °C. In addition, the IC50 in series [1] is 7.94 to 316 nM.

`Oc1ccccc1-c1nnc2c3ccccc3c(Nc3ccc(N4CCOCC4)cc3)nn12` [Example 26, 2-[6-(4-Morpholin-4-yl-phenylamino)-[1,2,4]triazolo[3,4-a]phthalazin-3-yl]-phenol]: the melting point came to 317 °C. Moreover, the half-maximal inhibitory concentration (IC50) in series [1] is 7.94 to 316 nM.

`COc1ccc(-c2nnc3c4ccccc4c(Nc4ccc(CC#N)cc4)nn23)cc1` [Example 15, {4-[3-(4-Methoxyphenyl)-[1,2,4]triazolo[3,4-a]phthalazin-6-ylamino]-phenyl}-acetonitrile] showed a melting point of 295 °C. Also, in series [1], the IC50 is 7.94 to 316 nM.

Compound `COc1ccc(-c2nnc3c4ccccc4c(Nc4ccc(C)cc4)nn23)cc1` [Example 11, [3-(4-Methoxyphenyl)-[1,2,4]triazolo[3,4-a]phthalazin-6-yl]-p-tolyl-amine] came in with a melting point of 311 °C. The IC50 in series [1] is 7.94 to 316 nM.

As to `COc1ccc(Nc2nn3c(-c4ccc(OC)cc4)nnc3c3ccccc23)cc1` [Example 1, (4-Methoxyphenyl)-[3-(4-methoxyphenyl)-[1,2,4]triazolo[3,4-a]phthalazin-6-yl]-amine], the melting point lay in the range of 301 to 304 °C.

`COc1ccc(-c2nnc3c4ccccc4c(Nc4cccc(OC(F)F)c4)nn23)cc1` [Example 28, [3-(1,1-Difluoromethoxy)-phenyl]-[3-(4-methoxyphenyl)-[1,2,4]triazolo[3,4-a]phthalazin-6-yl]-amine] came in with a melting point of 247 °C. In addition, the half-inhibitory concentration (IC50) in series [1] was 7.94 to 316 nM.

The compound `COc1ccc(-c2nnc3c4ccccc4c(Nc4ccc(SC)cc4)nn23)cc1` [Example 16, [3-(4-Methoxyphenyl)-[1,2,4]triazolo[3,4-a]phthalazin-6-yl]-(4-methylsulfanylphenyl)-amine] registered a melting point of 326 °C. Moreover, in series [1], the half-inhibitory concentration (IC50) was 7.94 to 316 nM.
